O=C(O)c1ccc(C(=O)O)o1
solubility (mole fraction)
Details	in MIBK	in acetic acid	in acetonitrile	in isobutanol	in methanol	in methyl acetate	in n-butanol	in water
313.15 K	0.000136	0.000235	6.11e-05	0.00168	0.00428	7.78e-05	0.00266	0.000203
318.15 K	0.000184	0.000272	9.15e-05	0.00198	0.00489	0.000113	0.00302	0.000225
323.15 K	0.000253	0.000331	0.000112	0.0023	0.0054	0.000164	0.00346	0.000283
328.15 K	0.000296	0.000404	0.000136	0.0027	0.0068	0.000238	0.00408	0.00037
333.15 K	0.000338	0.000478	0.000166	0.00323	0.00801	0.000285	0.00469	0.000421
338.15 K	0.000429	0.000555	0.000212	0.00372	0.00869	0.000377	0.00524	0.000465
343.15 K	0.000536	0.000717	0.000248	0.00412	0.00894	0.000464	0.00572	0.000598
348.15 K	0.000631	0.00082	0.000278	0.00482	–	0.000549	0.00663	0.000641
353.15 K	0.000666	0.000965	0.000341	0.00548	–	0.00062	0.00741	0.000781
358.15 K	0.000721	0.00115	0.000409	0.00607	–	0.000659	0.0082	0.000908
363.15 K	0.000863	0.00134	0.000487	0.00682	–	0.000721	0.00916	0.0011
